Data as given in ChEMBL document CHEMBL1201862, “PubChem BioAssay data set” (2004).
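Results reflect a 48-hour exposure of cells in 96-well plates to compound at five concentrations. Here, GI50 denotes the concentration required for 50% inhibition of growth.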 Calls of active or inactive are those of the source. Cut-off read from the data, not from the text of the source: active = GI50 up to about 1.1 µM and inactive = higher.

How the values were obtained:
Test in all cases: DTP human tumour cell line panel, 48 h
SF-539 = tested on: SF-539
SF-295 = tested on: SF-295
UO-31 = tested on: UO-31
SNB-75 = tested on: SNB-75
K562 = tested on: K562
NCI-H23 = tested on: NCI-H23
HOP-62 = tested on: HOP-62
HCC 2998 = tested on: HCC 2998
DMS-273 = tested on: DMS-273
A549 = tested on: A549
NCI-H522 = tested on: NCI-H522
SF-268 = tested on: SF-268
KM-20L2 = tested on: KM-20L2
MOLT-4 = tested on: MOLT-4
HCT-15 = tested on: HCT-15
Malme-3M = tested on: Malme-3M
EKVX = tested on: EKVX
HL-60 = tested on: HL-60
CCRF-CEM = tested on: CCRF-CEM
RXF 631 = tested on: RXF 631
TK-10 = tested on: TK-10
SW-620 = tested on: SW-620
M19-MEL = tested on: M19-MEL
DLD-1 = tested on: DLD-1
SK-MEL-5 = tested on: SK-MEL-5
786-0 = tested on: 786-0
DMS-114 = tested on: DMS-114
SK-MEL-28 = tested on: SK-MEL-28
HOP-92 = tested on: HOP-92
SN12C = tested on: SN12C
OVCAR-5 = tested on: OVCAR-5
UACC-62 = tested on: UACC-62
OVCAR-8 = tested on: OVCAR-8
U-251 = tested on: U-251
LXFL 529 = tested on: LXFL 529
SK-OV-3 = tested on: SK-OV-3
COLO 205 = tested on: COLO 205
ACHN = tested on: ACHN
RPMI-8226 = tested on: RPMI-8226
OVCAR-3 = tested on: OVCAR-3
RXF 393 = tested on: RXF 393
KM12 = tested on: KM12
NCI-H460 = tested on: NCI-H460
HOP-18 = tested on: HOP-18
UACC-257 = tested on: UACC-257
HT-29 = tested on: HT-29
SK-MEL-2 = tested on: SK-MEL-2
OVCAR-4 = tested on: OVCAR-4
M14 = tested on: M14
IGROV-1 = tested on: IGROV-1
SNB-19 = tested on: SNB-19
CAKI-1 = tested on: CAKI-1
LOX IMVI = tested on: LOX IMVI

`CCOC(=O)/C(C#N)=C/c1[nH]c(C(=O)OCc2ccccc2)c(C)c1C` was tested, and the GI50 (SF-539) was > 100 µM (inactive), the GI50 (SF-295) was > 100 µM (inactive) and the GI50 (UO-31) was > 100 µM (inactive). The GI50 (SNB-75) was > 100 µM (inactive), the GI50 (K562) was > 100 µM (inactive) and the GI50 (NCI-H23) was > 100 µM (inactive). The GI50 (HOP-62) was > 100 µM (inactive), the GI50 (HCC 2998) was > 100 µM (inactive) and the GI50 (DMS-273) was > 100 µM (inactive). The GI50 (A549) was > 100 µM (inactive), the GI50 (NCI-H522) was > 100 µM (inactive) and the GI50 (SF-268) was > 100 µM (inactive). For the same compound, the GI50 (KM-20L2) was > 100 µM (inactive), the GI50 (MOLT-4) was > 100 µM (inactive) and the GI50 (HCT-15) was over 100 µM. The GI50 (Malme-3M) was > 100 µM (inactive), the GI50 (EKVX) was > 100 µM (inactive) and the GI50 (HL-60) was > 100 µM (inactive). The GI50 (CCRF-CEM) was > 100 µM (inactive), the GI50 (RXF 631) was > 100 µM (inactive) and the GI50 (TK-10) was > 100 µM (inactive). For the same compound, the GI50 (SW-620) was > 100 µM (inactive), the GI50 (M19-MEL) was > 100 µM (inactive) and the GI50 (DLD-1) was > 100 µM (inactive). For the same compound, the GI50 (SK-MEL-5) was 30.3 µM (inactive), the GI50 (786-0) was > 100 µM (inactive) and the GI50 (DMS-114) was > 100 µM (inactive). For the same compound, the GI50 (SK-MEL-28) was > 100 µM (inactive), the GI50 (HOP-92) was 78.9 µM (inactive) and the GI50 (SN12C) was > 100 µM (inactive). The GI50 (OVCAR-5) was > 100 µM (inactive), the GI50 (UACC-62) was > 100 µM (inactive) and the GI50 (OVCAR-8) was > 100 µM (inactive). The GI50 (U-251) was > 100 µM (inactive), the GI50 (LXFL 529) was > 100 µM (inactive) and the GI50 (SK-OV-3) was > 100 µM (inactive). The GI50 (COLO 205) was > 100 µM (inactive), the GI50 (ACHN) was > 100 µM (inactive) and the GI50 (RPMI-8226) was > 100 µM (inactive). The GI50 (OVCAR-3) was > 100 µM (inactive), the GI50 (RXF 393) was > 100 µM (inactive) and the GI50 (KM12) was > 100 µM (inactive). The GI50 (NCI-H460) was > 100 µM (inactive), the GI50 (HOP-18) was > 100 µM (inactive) and the GI50 (UACC-257) was > 100 µM (inactive). For the same compound, the GI50 (HT-29) was > 100 µM (inactive), the GI50 (SK-MEL-2) was > 100 µM (inactive) and the GI50 (OVCAR-4) was > 100 µM (inactive). For the same compound, the GI50 (M14) was > 100 µM (inactive), the GI50 (IGROV-1) was > 100 µM (inactive) and the GI50 (SNB-19) was > 100 µM (inactive). For the same compound, the GI50 (CAKI-1) was > 100 µM (inactive) and the GI50 (LOX IMVI) was > 100 µM (inactive).
